Tested on: mouse brain
Test: In vivo T7 phage display (biopanning), high throughput sequencing of brain phage
Conditions: for reads associated with each sequence (Ion torrent sequencing): Round 5 of biopanning
Procedure: The in vivo phage screening in male Balb/C mice was performed as described in (Põšnograjeva et al., 2022) with some alterations. To reduce the background of unspecific phages in the brain, 4.5×10^10 pfu of UV-inactivated control insertless T7 phage was injected i.p. 30 min later, CX7C naïve T7 phage library or the phage pool recovered from the brain in the previous round of biopanning was injected i.v. and allowed to circulate for 30 min. The mice were anesthetized and perfused with PBS intracardially. The brain was removed, homogenized in LB-NP40 (1%) and the phages in the lysate were rescued by amplification in semi-solid media in E. coli strain BLT5403. Peptide-encoding portion of the phage genome was sequenced using Ion Torrent high throughput sequencing (HTS). 8 mice were used in the first round of biopanning (R1) to prevent creating a narrow bottleneck of selection in the first round of biopanning. 2 mice were used for all subsequent rounds (R2 . . . . R5). R5 was repeated with the additional step of isolating brain CD31+ cells from CD31− cells by magnetic-activated cell sorting. The mouse brains were dissociated using Dounce tissue grinder and Adult Brain Dissociation Kit (#130-107-677) and CD31+ cells were isolated from all the other brain cells using CD31 MicroBeads (#130-097-418) following the manufacturer's protocol for isolation and cultivation of endothelial cells from adult mouse brain. The cells were lysed in LB-NP40 (1%) and the samples were further processed following the same steps with samples of whole brain.
To identify peptides that accumulate in mouse brain, cross the blood-brain barrier and reach the brain parenchyma cells, in vivo T7 phage display was used. For round 1 of biopanning, naïve CX7C T7 peptide-phage library was injected into mice i.v. The phages accumulated in brain were rescued to be used as input in a subsequent round of biopanning. A consistent increase in the % of injected phage accumulating in the brain tissue through rounds 1 . . . 5 of biopanning was observed (FIG. 1A; To assess the % of injected phage that accumulated in the brain throughout the five rounds of biopanning (R1-R5), Peptide-phages were injected i.v. and following 30 min circulation mice were perfused with PBS. The phages rescued from the brain were reamplified and injected for a subsequent round of biopanning). The 5th round of bio-panning was then repeated with an additional step of isolating CD31+ brain endothelial cells from CD31− brain cells to detect peptides that not only accumulate in the brain, but also penetrate the endothelial cell layer lining the brain blood vessels (FIG. 1B; The total amount of phage rescued from mouse brain CD31+ and CD31− cell fractions after R5 with the additional step of isolating brain endothelial (CD31+) cells from all the other brain cells (parenchyma cells; CD31−)).
A complete listing of peptides that were identified from Ion Torrent high throughput sequencing from bio-panning Round 5 is set forth in Table 1B.

[1] = mouse 325, total reads in sample 135061
[2] = mouse 326, total reads in sample 218048

Row | Substance | reads associated with each sequence (Ion torrent sequencing) [1] [reads] | reads associated with each sequence (Ion torrent sequencing) [2] [reads] | representation of peptide sequence in brain (whole brain after round 5, CD31+ and CD31- brain cell fractions)
1 | IMLGDPILASRRVISRAKL | 68 | 116 | –
2 | MIGDANSSS | 2370 | 2197 | –
3 | MIGDPILAGRRIVSRAKLAAALE | 315 | 480 | –
4 | MIGDPILASRRVISR | 77 | 76 | –
5 | MIGDPILASRRVISRAKLAA | 254 | 286 | –
6 | MIGDPNFAIRAVISRAKLAAALE | 543 | 825 | –
7 | MLGDPILASERVISRAKLAAASS | 47 | 169 | –
8 | MLGDPILASRAVISRAKLAAA | 350 | 399 | –
9 | MLGDPILASRAVISRAKLAAALS | 54 | 194 | –
10 | MLGDPILASRAVISRAKLAAHSS | 84 | 142 | –
11 | MLGDPILASRRVISRAK | 67 | 100 | –
12 | MLGDPILASRRVISRAKLA | 150 | 172 | –
13 | MLGDPILASRRVISRAKLAAAFE | 46 | 269 | –
14 | MLGDPILASRRVISRAKLAAAL | 1495 | 2334 | –
15 | MLGDPILASRRVISRAKLAAALD | 34 | 119 | –
16 | MLGDPILASRRVISRAKLAAALE [Pep1] | 80229 | 132268 | most represented peptide sequence in the whole brain after round 5 of bio-panning as well as in CD31+ and CD31− brain cell fractions
17 | MLGDPILASRRVISRAKLAAALG | 33 | 108 | –
18 | MLGDPILASRRVISRAKLAATLE | 39 | 143 | –
19 | MLGDPILASRRVISRAKLAAVLE | 51 | 292 | –
20 | MLGDPILASRRVISRAKLADALE | 142 | 359 | –
21 | MLGDPILASRRVISRAKLEAALE | 129 | 251 | –
22 | MLGDPNIVAKLAAALE | 271 | 368 | –
23 | MLGDPNLARRRVISRAKLAAAL | 89 | 188 | –
24 | MLGDPNLARRRVISRAKLAAALE | 4716 | 8755 | –
25 | MLGDPNS | 57 | 84 | –
26 | MLGDPNSC | 84 | 216 | –
27 | MLGDPNSCTEGTRVTC | 1533 | 2339 | –
28 | MLGDPNSSSVDKLAAALE | 674 | 588 | –

Reference: patent publication US20260347399A1, “BRAIN PENETRATING PEPTIDES AND METHODS OF USE” (priority 2022, published 2026)
